The text below walks through data of patent US10253041B2, “7-phenylethylamino-4H-pyrimido[4,5-d][1,3]oxazin-2-one compounds and their use as mutant IDH1 inhibitors” (Eli Lilly and Company, priority 2015, dated 2019).

Residue numbers refer to the chain shown, from its start. Read-outs that look alike come from different tables or passages of the source.

Experiment [1] deals with IDH1/R132H in U87MG glioma cells. The experiment is described as follows: U87MG/IDH1R132H cell assay (intracellular 2HG). Format: cell-based. Particulars: 1 hour + 18 hours incubation, read-out: U87MG (IDH1/R132H 2-hydroxyglutarate IC50). Here is the method: To test the cellular inhibition of IDH1 mutant R132C, the fibrosarcoma cell line HT1080 (purchased from ATCC) is used. For testing cell-based inhibition of the R132H mutation, the U87MG glioma cell line (ATCC) was stably transfected with a DNA construct expressing the R132H mutant enzyme.
Cells are plated in poly-D-lys coated 96 well plates (12,000 cells/well) 18-24 hours previous to treatment with compounds. Four hours prior to compound treatment, cells are glutamine-starved by removing normal media and replacing with glutamine-free media. Following starvation, cells are then treated with different concentrations of test compounds (20 μM to 1 nM) dissolved in glutamine free media containing DMSO at a final concentration of 0.2%. The initial compound incubation is for 1 hour at 37° C./5% CO2. After 1 hour, glutamine is added to a final 2 mM concentration and the treated cells are then incubated for a further 18 hours at 37° C./5% CO2. Intracellular 2HG is analyzed in cell lysates obtained after media removal and treatment with lysis buffer (25 mM Tris-HCl pH 7.5, 150 mM NaCl, 1 mM EDTA, 1 mM EGTA/1% Triton-X 100). Cell lysates are conserved at −80° C. until processing. For analyte extraction, an aliquot of thawed lysate is transferred to a deep 96-well plate and treated with cold MeOH containing d5-3HG as an internal standard followed by chloroform and H2O (1:4:3:2). The upper phase is collected after separation and injected in HPLC to separate 2HG (and internal standard) using hydrophilic interaction (HILIC) chromatography coupled to MS/MS detection in a 6460 triple quadrupole mass spectrometer. Percent inhibition for each individual sample is obtained after normalizing calculated 2HG concentration to maximum and minimum references obtained in the presence and in the absence of glutamine during cell treatment with compounds. IC50 values are obtained from individual % inhibition using a sigmoidal dose-response 4-parameter equation. These calculations are carried out automatically using Activity Base (IDBS) or Screener (Genedata) data analysis programs.

The target of a further experiment is T1, IDH2/R140Q (Homo sapiens, UniProt P48735, R140Q).
T1 construct: His-tag (N); made in house; host or cells: E. coli
T1 sequence (P48735 40-452 R140Q): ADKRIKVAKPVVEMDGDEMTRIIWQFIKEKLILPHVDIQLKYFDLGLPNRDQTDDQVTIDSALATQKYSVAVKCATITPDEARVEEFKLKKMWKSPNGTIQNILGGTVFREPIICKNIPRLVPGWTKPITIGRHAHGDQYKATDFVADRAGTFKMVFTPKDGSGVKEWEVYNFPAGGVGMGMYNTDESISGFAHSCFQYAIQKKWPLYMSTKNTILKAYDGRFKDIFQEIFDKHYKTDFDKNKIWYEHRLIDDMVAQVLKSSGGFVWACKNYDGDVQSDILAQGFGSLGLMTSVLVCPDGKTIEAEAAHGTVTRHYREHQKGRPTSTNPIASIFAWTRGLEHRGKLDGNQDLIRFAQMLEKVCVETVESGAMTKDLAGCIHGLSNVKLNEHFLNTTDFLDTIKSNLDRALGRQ
The experiment is described as follows: Biochemical assay for IDH2 R140Q mutant enzyme (2HG by RapidFire MS). Particulars: mean ± standard deviation of the mean; 90 minutes reaction. On the procedure:
(§1) IDH1-R132H, IDH1-R132C, IDH2-R172K and IDH2-R140Q mutant enzymes catalyze the conversion of αKG to 2HG. 2HG is analyzed using in-line solid phase extraction and mass spectrometry. This analysis is carried out in a RapidFire® instrument coupled to a 6460 triple quadrupole mass spectrometer (G6460A Agilent).
(§2) IDH1 mutant (R132H and R132C) and IDH2 mutant (R140Q and R172K) proteins containing N-terminal His-tag are expressed in E. coli and purified using nickel affinity chromatography. The enzyme assays are carried out in V-bottom 96 well polypropylene plates containing 100 mM Tris-HCl buffer, 1 mM DTT, 0.005% TRITON™ X-100, 120 mM NaCl. For IDH1 R132H, α-ketoglutarate, NADPH and MnCl2 are included at final concentrations of 300 μM, 2.5 μM and 300 μM respectively. For IDH1 R132C, α-ketoglutarate, NADPH and MnCl2 are included at final concentrations of 100 μM, 10 μM and 100 μM respectively. For IDH2 R172K, α-ketoglutarate, NADPH and MnCl2 are included at final concentrations of 150 μM, 10 μM and 150 μM respectively. For IDH2 R140Q, α-ketoglutarate, NADPH and MnCl2 are included at final concentrations of 3000 μM, 10 μM and 100 μM respectively. Final pH=7.0. Test compound dissolved in DMSO stock is diluted in the reaction mix at a final DMSO concentration of 4%. Compounds are tested in dose-response format. The assay is started by addition of enzyme. Enzymes are used at the following final concentrations: IDH1 R132H, 2 nM; IDH1 R132C, 0.5 nM; IDH2 R172K, 1.2 nM; IDH2 R140Q, 1.2 nM. After 90 minutes the reaction is quenched by adding ACN (50:50) containing 3-hydroxy-1,5-pentanedioic-2,2,3,4,4-d5 acid (5d5-3HG) as an internal standard for mass spectrometry analysis and quantitation of reaction product. 2-Hydroxyglutarate (2HG) in quenched samples is separated using strong anionic exchange column chromatography (Phenomenex Strata-X-A SecurityGuard) and analyzed by mass spectrometry in a 6460 triple quadrupole mass spectrometer (G6460A Agilent). The 2HG signal detected is transformed into an analyte concentration using a calibration curve generated using known 2HG concentrations. […] IC50 values are obtained from the individual % inhibition values at different compound concentrations using a 4-parameter equation. These calculations are carried out using Activity Base (IDBS) or Screener (Genedata) data analysis programs.

The target of a further experiment is T2, IDH1/R132H (Homo sapiens, UniProt O75874, R132H).
T2 construct: His-tag (N); made in house; host or cells: E. coli
T2 sequence (O75874 whole entry R132H): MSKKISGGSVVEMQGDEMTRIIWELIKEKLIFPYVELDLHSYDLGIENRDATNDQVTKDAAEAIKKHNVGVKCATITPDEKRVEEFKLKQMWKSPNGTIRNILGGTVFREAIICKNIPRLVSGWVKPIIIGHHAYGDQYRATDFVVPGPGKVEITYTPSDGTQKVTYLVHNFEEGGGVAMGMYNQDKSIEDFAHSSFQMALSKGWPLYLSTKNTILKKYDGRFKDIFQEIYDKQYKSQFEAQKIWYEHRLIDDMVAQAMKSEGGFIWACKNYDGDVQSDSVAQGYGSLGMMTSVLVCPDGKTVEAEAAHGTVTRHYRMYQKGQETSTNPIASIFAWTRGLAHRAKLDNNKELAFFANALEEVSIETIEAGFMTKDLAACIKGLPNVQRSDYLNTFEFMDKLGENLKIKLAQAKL
The experiment is described as follows: Biochemical assay for IDH1 R132H mutant enzyme (2HG by RapidFire MS). Particulars: mean ± standard deviation of the mean; 90 minutes reaction. On the procedure:
as §1, §2

The target of the next experiment is T3, IDH2/R172K (Homo sapiens, UniProt P48735, R172K).
T3 construct: His-tag (N); made in house; host or cells: E. coli
T3 sequence (P48735 40-452 R172K): T1 sequence (P48735 40-452 R140Q) with Q101R, R133K
Nature of the experiment: Biochemical assay for IDH2 R172K mutant enzyme (2HG by RapidFire MS). The following applies: mean ± standard deviation of the mean; 90 minutes reaction. On the procedure:
as §1, §2

In the case of `C=CC(=O)N1CCN(Cc2ccc([C@H](C)Nc3ncc4c(n3)N(C(C)C)C(=O)OC4)cc2)CC1` [Example 1, 1-Isopropyl-7-[[(1S)-1-[4-[(4-prop-2-enoylpiperazin-1-yl)methyl]phenyl]ethyl]amino]-4H-pyrimido[4,5-d][1,3]oxazin-2-one], the IC50 in experiment [1] (Homo sapiens, U-87 MG, 19 h) came to 0.00265 ± 7e-05 µM; against IDH2/R140Q it was 41.8 µM; against IDH1/R132H, 0.0291 ± 0.0107 µM; against IDH2/R172K, 1.67 µM.
With `C=CC(=O)N1CCN(Cc2ccc([C@H](C)Nc3ncc4c(n3)N(CC)C(=O)OC4)cc2)CC1` [Example 2, 1-Ethyl-7-[[(1S)-1-[4-[(4-prop-2-enoylpiperazin-1-yl)methyl]phenyl]ethyl]amino]-4H-pyrimido[4,5-d][1,3]oxazin-2-one], the IC50 in experiment [1] turned out to be 0.00508 ± 0.00165 µM; against IDH2/R140Q, 73.9 µM; against IDH1/R132H it was 0.11 ± 0.046 µM; against IDH2/R172K it was 5.26 µM.
Consider `C=CC(=O)N1CCN(Cc2ccc([C@H](C)Nc3ncc4c(n3)N(CC(C)C)C(=O)OC4)cc2)CC1` [Example 3, 1-Isobutyl-7-[[(1S)-1-[4-[(4-prop-2-enoylpiperazin-1-yl)methyl]phenyl]ethyl]amino]-4H-pyrimido[4,5-d][1,3]oxazin-2-one], for which the IC50 in experiment [1] (Homo sapiens, U-87 MG, 19 h) was determined as 0.0059 µM; against IDH2/R140Q, 59.5 µM; against IDH1/R132H, 0.0509 ± 0.0131 µM; against IDH2/R172K, 5.35 µM.
Regarding `C=CC(=O)N1CC(OCc2ccc([C@H](C)Nc3ncc4c(n3)N(CC)C(=O)OC4)cc2)C1` [Example 4, 1-Ethyl-7-[[(1S)-1-[4-[(1-prop-2-enoylazetidin-3-yl)oxymethyl]phenyl]ethyl]amino]-4H-pyrimido[4,5-d][1,3]oxazin-2-one], the IC50 in experiment [1] (Homo sapiens, U-87 MG, 19 h) was found to be 0.00298 ± 0.00258 µM; against IDH2/R140Q, 37.7 µM; on IDH1/R132H it was 0.0786 ± 0.0189 µM; against IDH2/R172K, 1.46 µM.
`C=CC(=O)N1CC2(CN(Cc3ccc([C@H](C)Nc4ncc5c(n4)N(CC(C)C)C(=O)OC5)cc3)C2)C1` [Example 5, 1-Isobutyl-7-[[(1S)-1-[4-[(2-prop-2-enoyl-2,6-diazaspiro[3.3]heptan-6-yl)methyl]phenyl]ethyl]amino]-4H-pyrimido[4,5-d][1,3]oxazin-2-one]: the IC50 in experiment [1] (Homo sapiens, U-87 MG, 19 h) was 0.00984 ± 0.0081 µM; on IDH2/R140Q, more than 100 µM; at IDH1/R132H, 0.056 ± 0.0157 µM; against IDH2/R172K it was 13.6 µM.
Consider `C=CC(=O)N1CCN(c2ccc([C@H](C)Nc3ncc4c(n3)N(C(C)C)C(=O)OC4)cc2)CC1` [Example 6, 1-Isopropyl-7-[[(1S)-1-[4-(4-prop-2-enoylpiperazin-1-yl)phenyl]ethyl]amino]-4H-pyrimido[4,5-d][1,3]oxazin-2-one], for which the IC50 in experiment [1] (Homo sapiens, U-87 MG, 19 h) was 0.0174 ± 0.0013 µM; at IDH2/R140Q, more than 100 µM; on IDH1/R132H, 0.15 ± 0.024 µM; against IDH2/R172K it was 14.1 µM.
`C=CC(=O)N1CC(CCc2ccc([C@H](C)Nc3ncc4c(n3)N(CC)C(=O)OC4)cc2)C1` [Example 7, 1-Ethyl-7-[[(1S)-1-[4-[2-(1-prop-2-enoylazetidin-3-yl)ethyl]phenyl]ethyl]amino]-4H-pyrimido[4,5-d][1,3]oxazin-2-one]: the IC50 is 0.00564 ± 0.00035 µM in experiment [1] (Homo sapiens, U-87 MG, 19 h); 10.9 µM against IDH2/R140Q; 0.0397 ± 0.026 µM against IDH1/R132H; 0.482 µM at IDH2/R172K.
Consider `C=CC(=O)N1CCC2(CC1)CN(Cc1ccc([C@H](C)Nc3ncc4c(n3)N(C(C)C)C(=O)OC4)cc1)C2` [Example 8, 1-Isopropyl-7-[[(1S)-1-[4-[(7-prop-2-enoyl-2,7-diazaspiro[3.5]nonan-2-yl)methyl]phenyl]ethyl]amino]-4H-pyrimido[4,5-d][1,3]oxazin-2-one], for which the IC50 was 0.0189 ± 0.0051 µM in experiment [1] (Homo sapiens, U-87 MG, 19 h); more than 100 µM at IDH2/R140Q; 0.29 ± 0.17 µM on IDH1/R132H; 51.7 µM against IDH2/R172K.
Regarding `C=CC(=O)N1CC=C(COc2ccc([C@H](C)Nc3ncc4c(n3)N(CC)C(=O)OC4)cc2)C1` [Example 22, 1-ethyl-7-[[(1S)-1-[4-[(1-prop-2-enoyl-2,5-dihydropyrrol-3-yl)methoxy]phenyl]ethyl]amino]-4H-pyrimido[4,5-d][1,3]oxazin-2-one], the IC50 on IDH2/R140Q turned out to be 11.6 ± 2 µM; on IDH2/R172K, 0.469 ± 0.355 µM.
